Laboratory results as given in US10206394B2, “Herbicidal compounds” (Syngenta Participations AG, priority 2014, dated 2019).
Where two headings read alike, the source gives them in different places.

Assays:
Experiment in all cases: Glasshouse assay for herbicidal activity (pre- and post-emergence), percentage phytotoxicity
Format in all cases: in vivo
[1] = system: Alopecurus myosuroides (ALOMY); conditions: Alopecurus myosuroides
Description: (§1) Test—Glasshouse Assay for Herbicidal Activity
(§2) Seeds of a variety of monocotyledonous and dicotyledonous test plants are sown in standard soil in pots. The plants are cultivated for one day (for pre-emergence (PRE)) or for about 12 days (for post-emergence (POST)) under controlled conditions in a glasshouse (warm climate species at 24/18° C., cool climate species at 20/16° C., both at day/night; 16 hours light; 65% humidity).
(§3) The test plants are then grown on, in a glasshouse (greenhouse) under controlled conditions (warm climate species at 24/18° C., cool climate species at 20/16° C., both at day/night; 16 hours light; 65% humidity) and are watered twice daily. 15 days after application of the test herbicide (15 DAA) (for post-emergence), and 20 days after application of the test herbicide (20 DAA) (for pre-emergence), the test plants are evaluated visually, and an assessed percentage phytotoxicity score is given for each herbicidal application on each plant species (with 100%=total damage to plant; 0%=no damage to plant).
(§4) The plant species tested are as follows: Alopecurus myosuroides (ALOMY), Avena fatua (AVEFA), Lolium perenne (LOLPE), Echinochloa crus-galli (ECHCG).

Avena fatua (AVEFA) = conditions: Avena fatua
Description: as §1, §2, §3, §4

[2] = system: Echinochloa crus-galli (ECHCG); conditions: Echinochloa crus-galli
Description: as §1, §2, §3, §4

Lolium perenne (LOLPE) = conditions: Lolium perenne
Description: as §1, §2, §3, §4

[3] = post-emergence, 360 h, POST-emergence, rate 250 g/ha, visual score 15 DAA (100%=total damage, 0%=no damage), read-out: Post-emergence herbicidal activity (percentage phytotoxicity) ALOMY POST
[4] = pre-emergence, 480 h, PRE-emergence, rate 250 g/ha, visual score 20 DAA (100%=total damage, 0%=no damage), read-out: Pre-emergence herbicidal activity (percentage phytotoxicity) ALOMY PRE
[5] = post-emergence, 360 h, POST-emergence, rate 250 g/ha, visual score 15 DAA (100%=total damage, 0%=no damage), read-out: Post-emergence herbicidal activity (percentage phytotoxicity) AVEFA POST
[6] = pre-emergence, 480 h, PRE-emergence, rate 250 g/ha, visual score 20 DAA (100%=total damage, 0%=no damage), read-out: Pre-emergence herbicidal activity (percentage phytotoxicity) AVEFA PRE
[7] = post-emergence, 360 h, POST-emergence, rate 250 g/ha, visual score 15 DAA (100%=total damage, 0%=no damage), read-out: Post-emergence herbicidal activity (percentage phytotoxicity) ECHCG POST
[8] = pre-emergence, 480 h, PRE-emergence, rate 250 g/ha, visual score 20 DAA (100%=total damage, 0%=no damage), read-out: Pre-emergence herbicidal activity (percentage phytotoxicity) ECHCG PRE
[9] = post-emergence, 360 h, POST-emergence, rate 250 g/ha, visual score 15 DAA (100%=total damage, 0%=no damage), read-out: Post-emergence herbicidal activity (percentage phytotoxicity) LOLPE POST
[10] = pre-emergence, 480 h, PRE-emergence, rate 250 g/ha, visual score 20 DAA (100%=total damage, 0%=no damage), read-out: Pre-emergence herbicidal activity (percentage phytotoxicity) LOLPE PRE
[11] = post-emergence, 360 h, 250 g/ha, post-emergence, 15 DAA, visual assessment (100%=total damage, 0%=no damage), read-out: Post-emergence herbicidal activity (percentage phytotoxicity) ALOMY POST
[12] = pre-emergence, 480 h, 250 g/ha, pre-emergence, 20 DAA, visual assessment (100%=total damage, 0%=no damage), read-out: Pre-emergence herbicidal activity (percentage phytotoxicity) ALOMY PRE
[13] = post-emergence, 360 h, 250 g/ha, post-emergence, 15 DAA, visual assessment (100%=total damage, 0%=no damage), read-out: Post-emergence herbicidal activity (percentage phytotoxicity) AVEFA POST
[14] = pre-emergence, 480 h, 250 g/ha, pre-emergence, 20 DAA, visual assessment (100%=total damage, 0%=no damage), read-out: Pre-emergence herbicidal activity (percentage phytotoxicity) AVEFA PRE
[15] = post-emergence, 360 h, 250 g/ha, post-emergence, 15 DAA, visual assessment (100%=total damage, 0%=no damage), read-out: Post-emergence herbicidal activity (percentage phytotoxicity) ECHCG POST
[16] = pre-emergence, 480 h, 250 g/ha, pre-emergence, 20 DAA, visual assessment (100%=total damage, 0%=no damage), read-out: Pre-emergence herbicidal activity (percentage phytotoxicity) ECHCG PRE
[17] = post-emergence, 360 h, 250 g/ha, post-emergence, 15 DAA, visual assessment (100%=total damage, 0%=no damage), read-out: Post-emergence herbicidal activity (percentage phytotoxicity) LOLPE POST
[18] = pre-emergence, 480 h, 250 g/ha, pre-emergence, 20 DAA, visual assessment (100%=total damage, 0%=no damage), read-out: Pre-emergence herbicidal activity (percentage phytotoxicity) LOLPE PRE

Row | SMILES | pest or weed control at 250 g/ha [1, 3] | pest or weed control at 250 g/ha [1, 4] | pest or weed control at 250 g/ha (Avena fatua (AVEFA); [5]) | pest or weed control at 250 g/ha (Avena fatua (AVEFA); [6]) | pest or weed control at 250 g/ha [2, 7] | pest or weed control at 250 g/ha [2, 8] | pest or weed control at 250 g/ha (Lolium perenne (LOLPE); [9]) | pest or weed control at 250 g/ha (Lolium perenne (LOLPE); [10]) | pest or weed control at 250 g/ha [1, 11] | pest or weed control at 250 g/ha [1, 12] | pest or weed control at 250 g/ha (Avena fatua (AVEFA); [13]) | pest or weed control at 250 g/ha (Avena fatua (AVEFA); [14]) | pest or weed control at 250 g/ha [2, 15] | pest or weed control at 250 g/ha [2, 16] | pest or weed control at 250 g/ha (Lolium perenne (LOLPE); [17]) | pest or weed control at 250 g/ha (Lolium perenne (LOLPE); [18]) | further results
1 | CCc1cc(C)cc(C)c1C1C(=O)CC(CC(=O)NCc2ccc(OC)cc2)C1=O (stereo not drawn) [Compound B253] | 100% | 100% | 100% | 80% | 100% | 90% | 100% | 90% |  |  |  |  |  |  |  |  | 
2 | Cc1cc(-c2ncc(Cl)cn2)cc(C)c1C1C(=O)C[C@@H](CC(=O)NC(C)(C)C)C1=O (stereo partly drawn) [Compound B49] |  |  |  |  |  |  |  |  | 100% | 100% | 100% | 90% | 100% | 100% | 100% | 100% | 
3 | Cc1cc(-c2ccc(Cl)cn2)cc(C)c1C1C(=O)CC(CC(=O)NCc2cccs2)C1=O (stereo not drawn) [Compound B373] |  |  |  |  |  |  |  |  |  |  |  |  |  |  |  |  | pest or weed control at 250 g/ha ([1]; post-emergence, 360 h, Rate 250 g/ha, post-emergence, visual assessment 15 DAA, 100%=total damage, 0%=no damage, read-out: Post-emergence herbicidal activity (percentage phytotoxicity) ALOMY POST): 80%; pest or weed control at 250 g/ha ([1]; pre-emergence, 480 h, Rate 250 g/ha, pre-emergence, visual assessment 20 DAA, 100%=total damage, 0%=no damage, read-out: Pre-emergence herbicidal activity (percentage phytotoxicity) ALOMY PRE): 70%; pest or weed control at 250 g/ha (Avena fatua (AVEFA); post-emergence, 360 h, Rate 250 g/ha, post-emergence, visual assessment 15 DAA, 100%=total damage, 0%=no damage, read-out: Post-emergence herbicidal activity (percentage phytotoxicity) AVEFA POST): 100%; pest or weed control at 250 g/ha (Avena fatua (AVEFA); pre-emergence, 480 h, Rate 250 g/ha, pre-emergence, visual assessment 20 DAA, 100%=total damage, 0%=no damage, read-out: Pre-emergence herbicidal activity (percentage phytotoxicity) AVEFA PRE): 80%; pest or weed control at 250 g/ha ([2]; post-emergence, 360 h, Rate 250 g/ha, post-emergence, visual assessment 15 DAA, 100%=total damage, 0%=no damage, read-out: Post-emergence herbicidal activity (percentage phytotoxicity) ECHCG POST): 100%; pest or weed control at 250 g/ha ([2]; pre-emergence, 480 h, Rate 250 g/ha, pre-emergence, visual assessment 20 DAA, 100%=total damage, 0%=no damage, read-out: Pre-emergence herbicidal activity (percentage phytotoxicity) ECHCG PRE): 100%; pest or weed control at 250 g/ha (Lolium perenne (LOLPE); post-emergence, 360 h, Rate 250 g/ha, post-emergence, visual assessment 15 DAA, 100%=total damage, 0%=no damage, read-out: Post-emergence herbicidal activity (percentage phytotoxicity) LOLPE POST): 80%; pest or weed control at 250 g/ha (Lolium perenne (LOLPE); pre-emergence, 480 h, Rate 250 g/ha, pre-emergence, visual assessment 20 DAA, 100%=total damage, 0%=no damage, read-out: Pre-emergence herbicidal activity (percentage phytotoxicity) LOLPE PRE): 100%
4 | COCC(C)(C)NC(=O)CC1CC(=O)C(c2c(C)cc(-c3ncc(F)cc3F)cc2C)C1=O (stereo not drawn) [Compound B329] | 100% | 100% | 100% | 80% | 100% | 100% | 100% | 100% |  |  |  |  |  |  |  |  | 
5 | C/C=C/c1cc(C)c(C2C(=O)CC(CC(N)=O)C2=O)c(CC)c1 (stereo not drawn) [Compound B153] |  |  |  |  |  |  |  |  | 100% | 90% | 100% | 70% | 100% | 90% | 100% | 80% | 
6 | CNC(=O)CC1CC(=O)C(c2c(C)cc(-c3ncc(F)cc3F)cc2C)C1=O (stereo not drawn) [Compound B269] | 100% | 100% | 100% | 100% | 100% | 100% | 100% | 100% |  |  |  |  |  |  |  |  | 
